Target: T1, CRTH2 (Homo sapiens, UniProt Q9Y5Y4)
T1 construct: expressed in transfected cells; host or cells: CHO cells
T1 sequence (Q9Y5Y4 1-395): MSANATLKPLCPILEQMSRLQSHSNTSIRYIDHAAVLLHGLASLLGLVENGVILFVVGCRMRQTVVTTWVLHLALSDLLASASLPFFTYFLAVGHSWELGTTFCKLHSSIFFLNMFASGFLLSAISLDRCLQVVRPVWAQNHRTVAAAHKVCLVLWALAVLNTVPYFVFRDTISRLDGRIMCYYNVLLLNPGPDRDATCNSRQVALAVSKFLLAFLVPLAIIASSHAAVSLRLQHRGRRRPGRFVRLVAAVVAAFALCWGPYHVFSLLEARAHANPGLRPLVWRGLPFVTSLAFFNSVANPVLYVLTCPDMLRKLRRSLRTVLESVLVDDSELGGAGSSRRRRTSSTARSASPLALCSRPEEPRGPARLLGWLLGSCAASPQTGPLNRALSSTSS
Experiment: [35S]GTPγS binding assay on CHO-CRTH2 cell membranes
Format: biochemical
Details: without addition of PGD2; 100% of Emax being the activity measured by the addition of 1 μM of PGD2
Protocol: (§1) Adherent CHO cells expressing hCRTH2 (Euroscreen, Belgium) were cultured in 225 cm^2 cell culture flasks (Corning, USA) in 30 ml of medium. After two rinses of phosphate buffered saline (PBS), cells were harvested in 10 ml of PBS containing 1 mM EDTA, centrifuged at 500×g for 5 min at 4° C. and frozen at −80° C. The pellet was re-suspended in 50 mM Tris-HCl, pH 7.4, 2 mM EDTA, 250 mM Sucrose, containing protease inhibitor cocktail tablets, (Complete EDTA-free, Roche, Germany) and incubated 30 min at 4° C. Cells were disrupted by nitrogen cavitation (Parr Instruments, USA) at 4° C. (800 p.s.i. for 30 min), and centrifuged at 500×g for 10 min at 4° C. Pellet containing nuclei and cellular debris was discarded and supernatant was centrifuged 60 min at 4° C. at 45000×g. Membrane pellet was re-suspended in storage buffer (10 mM HEPES/KOH pH 7.4, 1 mM EDTA, 250 mM sucrose, protease inhibitor cocktail tablets) using Dounce homogenization and frozen in liquid nitrogen, and stored at 80° C.
The [^35S]GTPγS assay measures the increase in guanine nucleotide exchange at G-proteins in cell membranes, resulting from agonist (PGD2) binding to CRTH2. […] Briefly, Compounds of Formula (I) are incubated in 96-well scintillating white polystyrene plates (Perkin Elmer, USA) in a final volume of 200 μl containing 20 mM HEPES/KOH pH 7.4, 3 mM MgCl2, 10 μg/ml Saponin, 5 μM GDP, 75 mM NaCl and 2% of dimethylsulphoxide (DMSO). […] After 60 min incubation at 30° C., reaction is stopped by centrifugation at 700×g, at 4° C. for 10 minutes and supernatant is removed. […] For IC50 determination, increasing concentrations of compounds are incubated in presence of a fixed concentration of PGD2 (EC80). For EC50 measurements, compounds are incubated without addition of PGD2. Basal [^35S]GTPγS activity is determined without addition of any ligands or compounds. 100% [^35S]GTPγS activity is measured by the addition of 1 μM of PGD2.

| SMILES | Emax |
| --- | --- |
| CCC(=O)N(Cc1cccc(O)c1)c1cc(F)cc(-c2nnn[nH]2)c1 [Example 84, N-[3-fluoro-5-(1H-tetrazol-5-yl)phenyl]-N-(3-hydroxybenzyl)propanamide] | -17.1% |
| CCC(=O)N(Cc1ccc(-c2c(C)cccc2C)cc1)c1cc(F)cc(-c2nnn[nH]2)c1 [Example 100] | -16.7% |
| CCC(=O)N(Cc1cccc(OC)c1)c1cc(F)cc(-c2nnn[nH]2)c1 [Example 39, N-[3-fluoro-5-(1H-tetrazol-5-yl)phenyl]-N-(3-methoxybenzyl)propanamide] | -11.2% |

Target: T2, CRTH2 (DP2) (Homo sapiens, UniProt Q9Y5Y4)
T2 construct: host or cells: CHO cells
T2 sequence (Q9Y5Y4 1-395): T1 sequence (Q9Y5Y4 1-395)
Experiment: Radioligand binding Scintillation Proximity Assay ([3H]PGD2, hCRTH2-CHO cell membranes)
Details: 1.5 nM [3H]PGD2, hCRTH2-CHO cell membranes, SPA
Protocol: as §1
Non-specific binding was determined in the presence of 10 μM PGD2 (Cayman, USA). Competing Compounds of Formula (I) were diluted in dimethylsulphoxide so that the total volume of dimethylsulfoxide was kept constant at 1% dimethylsulphoxide (Me2SO). Serial dilutions of […] were prepared and 10 μl each of the compounds of Formula (I) stock solutions were added to the binding assay reagents and incubated for 90 min with agitation at room temperature.

| SMILES | IC50 |
| --- | --- |
| CCCCC(=O)N(Cc1cccn1S(=O)(=O)c1ccccc1)c1cc(-c2nnn[nH]2)ccc1F [Example 4, N-[2-fluoro-5-(1H-tetrazol-5-yl)phenyl]-N-{[1-(phenylsulfonyl)-1H-pyrrol-2-yl]methyl}pentanamide] | 51 nM |
| CCC(=O)N(Cc1ccc(-c2c(C)cccc2C)cc1)c1cc(F)cc(-c2nnn[nH]2)c1 [Example 100] | 8.3 nM |
| CCC(=O)N(Cc1cccc(OC)c1)c1cc(F)cc(-c2nnn[nH]2)c1 [Example 39, N-[3-fluoro-5-(1H-tetrazol-5-yl)phenyl]-N-(3-methoxybenzyl)propanamide] | 9.6 nM |
| Cc1cc(C(=O)N(Cc2ccc(S(C)(=O)=O)cc2)c2cc(F)cc(-c3nnn[nH]3)c2)n(C)n1 [Example 110, N-[3-fluoro-5-(1H-tetrazol-5-yl)phenyl]-1,3-dimethyl-N-[4-(methylsulfonyl)benzyl]-1H-pyrazole-5-carboxamide] | 56 nM |
| CC(C)CC(=O)N(Cc1ccc2c(c1)OCCO2)c1cc(-c2nnn[nH]2)ccc1F [Example 7, N-(2,3-dihydro-1,4-benzodioxin-6-ylmethyl)-N-[2-fluoro-5-(1H-tetrazol-5-yl)phenyl]-3-methylbutanamide] | 7.1 nM |
| CCC(=O)N(Cc1nc2ccccc2s1)c1cccc(-c2nnn[nH]2)c1 [Example 43, N-(1,3-benzothiazol-2-ylmethyl)-N-[3-(1H-tetrazol-5-yl)phenyl]propanamide] | 663 nM |
| CCC(=O)N(Cc1cccc(F)c1)c1cccc(-c2nnn[nH]2)c1 [Example 32, N-(3-fluorobenzyl)-N-[3-(1H-tetrazol-5-yl)phenyl]propanamide] | 1690 nM |
| CCC(=O)N(Cc1ccc(-c2c(C)noc2C)cc1)c1cccc(-c2nnn[nH]2)c1 [Example 71, N-[4-(3,5-dimethylisoxazol-4-yl)benzyl]-N-[3-(1H-tetrazol-5-yl)phenyl]propanamide] | 182 nM |
| CCCCC(=O)N(Cc1ccc2ccccc2c1)c1cccc(-c2nnn[nH]2)c1 [Example 3, N-(2-naphthylmethyl)-N-[3-(1H-tetrazol-5-yl)phenyl]pentanamide] | 49 nM |
| CCC(=O)N(Cc1cccs1)c1cccc(-c2nnn[nH]2)c1 [Example 17, N-[3-(1H-tetrazol-5-yl)phenyl]-N-(2-thienylmethyl)propanamide] | 1590 nM |
| CCC(=O)N(Cc1cccc(OC)c1)c1cccc(-c2nnn[nH]2)c1 [Example 25, N-(3-methoxybenzyl)-N-[3-(1H-tetrazol-5-yl)phenyl]propanamide] | 444 nM |
| CCC(=O)N(Cc1ccc(F)cc1)c1cccc(-c2nnn[nH]2)c1 [Example 31, N-(4-fluorobenzyl)-N-[3-(1H-tetrazol-5-yl)phenyl]propanamide] | 1540 nM |
| CCC(=O)N(Cc1ccccc1F)c1cccc(-c2nnn[nH]2)c1 [Example 33, N-(2-fluorobenzyl)-N-[3-(1H-tetrazol-5-yl)phenyl]propanamide] | 1160 nM |
| CCC(=O)N(Cc1ccc(-c2ccccc2)cc1)c1cccc(-c2nnn[nH]2)c1 [Example 69, N-(biphenyl-4-ylmethyl)-N-[3-(1H-tetrazol-5-yl)phenyl]propanamide] | 506 nM |
| CC(C)C(=O)N(Cc1ccc(S(C)(=O)=O)cc1)c1cc(F)cc(-c2nnn[nH]2)c1 [Example 117, N-[3-fluoro-5-(1H-tetrazol-5-yl)phenyl]-2-methyl-N-[4-(methylsulfonyl)benzyl]propanamide] | 19 nM |
| CCCCC(=O)N(Cc1ccc(OC(F)(F)F)cc1)c1cc(F)cc(-c2nnn[nH]2)c1 [Example 35, N-[3-fluoro-5-(1H-tetrazol-5-yl)phenyl]-N-[4-(trifluoromethoxy)benzyl]pentanamide] | 8.9 nM |
| CCC(=O)N(Cc1ccc(-c2cccc(S(=O)(=O)N(C)C)c2)cc1)c1cc(F)cc(-c2nnn[nH]2)c1 [Example 93, N-({3′-[(dimethylamino)sulfonyl]biphenyl-4-yl}methyl)-N-[3-fluoro-5-(1H-tetrazol-5-yl)phenyl]propanamide] | 125 nM |
| CCC(=O)N(Cc1ccc(-c2cc[nH]n2)cc1)c1cccc(-c2nnn[nH]2)c1 [Example 66, N-[4-(1H-pyrazol-3-yl)benzyl]-N-[3-(1H-tetrazol-5-yl)phenyl]propanamide] | 973 nM |
| CCC(=O)N(Cc1ccc(SC(F)(F)F)cc1)c1cc(F)cc(-c2nnn[nH]2)c1 [Example 82, N-[3-fluoro-5-(1H-tetrazol-5-yl)phenyl]-N-{4-[(trifluoromethyl)thio]benzyl}propanamide] | 2.6 nM |
| CCCCC(=O)N(Cc1ccc(OC)cc1)c1cccc(-c2nnn[nH]2)c1 [Example 14, N-(4-methoxybenzyl)-N-[3-(1H-tetrazol-5-yl)phenyl]pentanamide] | 61 nM |
| CCC(=O)N(Cc1cccc(-c2c(C)noc2C)c1)c1cc(F)cc(-c2nnn[nH]2)c1 [Example 85, N-[3-(3,5-dimethylisoxazol-4-yl)benzyl]-N-[3-fluoro-5-(1H-tetrazol-5-yl)phenyl]propanamide] | 19 nM |
| CCCCC(=O)N(Cc1ccc(C(F)(F)F)cc1)c1cc(F)cc(-c2nnn[nH]2)c1 [Example 60, N-[3-fluoro-5-(1H-tetrazol-5-yl)phenyl]-N-[4-(trifluoromethyl)benzyl]pentanamide] | 2.6 nM |
| CCC(=O)N(Cc1cccc(C#CCO)c1)c1cccc(-c2nnn[nH]2)c1 [Example 48, N-[3-(3-hydroxyprop-1-yn-1-yl)benzyl]-N-[3-(1H-tetrazol-5-yl)phenyl]propanamide] | 1270 nM |
| CCC(=O)N(Cc1ccc(-c2cnoc2)cc1)c1cc(F)cc(-c2nnn[nH]2)c1 [Example 111, N-[3-fluoro-5-(1H-tetrazol-5-yl)phenyl]-N-(4-isoxazol-4-ylbenzyl)propanamide] | 113 nM |
| CCC(=O)N(Cc1ccc(-c2ccccc2OC)cc1)c1cc(F)cc(-c2nnn[nH]2)c1 [Example 99, N-[3-fluoro-5-(1H-tetrazol-5-yl)phenyl]-N-[(2′-methoxybiphenyl-4-yl)methyl]propanamide] | 13 nM |
| CCC(=O)N(Cc1ccc2ncccc2c1)c1cccc(-c2nnn[nH]2)c1 [Example 72, N-(quinolin-6-ylmethyl)-N-[3-(1H-tetrazol-5-yl)phenyl]propanamide] | 1110 nM |

Target: T1, CRTH2
Experiment: Cellular Dielectric Spectroscopy in CHO-CRTH2 cells
Format: cell-based
Details: fixed concentration of PGD2 (EC80), read-out: IC50(μM) (CDS, antagonist)
Protocol: Cellular Dielectric Spectroscopy (CDS) is a label-free technology based on the measurement of complex impedance changes (delta Z or dZ). Impedance (Z) is related to the ratio of voltage to current as described by Ohm's law (Z=V/I). In order to measure the changes in impedance that occur in response to receptor stimulation, mammalian cells are seeded onto a custom 96-well microtiter plate that contains electrodes at the bottom of each well Key contributors to the impedance measurements are changes in cell-substrate adherence, changes in cell shape and volume, and changes in cell-cell interactions. These factors individually or collectively affect the flow of current, influencing the magnitude and characteristics of the signal measured. G-protein coupled receptors ligand-induced activity can be measured using this technology and specific G protein coupling can be identified. Activities of reference agonist and antagonist molecules of CRTH2 have been measured using this assay and similar results were obtained compared to different functional assays.
CHO—CRTH2 cells are cultured in HAM's F12 (Lonza, Switzerland) supplemented with 10% foetal calf serum (PAA, Australia) and 400 μg/ml Geneticin. 100000 cells/well are seeded in standard 96 W Microplates (MDS Analytical Technologies) and incubated at 37° C. in 5% CO2 for 24 hours. Cells are washed twice with 135 μl of cell key buffer (Hank's Balanced Salt Solution 1× (HBSS) (Invitrogen) supplemented with 10 mM HEPES pH 7.4 in presence of 1% DMSO). […] Results are expressed as the amplitude between the highest and the lowest signal produced (max-min). Basal and maximum activities are measured, respectively in absence or presence of PGD2 (EC80).

| SMILES | IC50 |
| --- | --- |
| CCCCC(=O)N(Cc1cccn1S(=O)(=O)c1ccccc1)c1cc(-c2nnn[nH]2)ccc1F [Example 4, N-[2-fluoro-5-(1H-tetrazol-5-yl)phenyl]-N-{[1-(phenylsulfonyl)-1H-pyrrol-2-yl]methyl}pentanamide] | 0.22 µM |

From patent US20120115869A1, “TETRAZOLE DERIVATIVES” (MERCK SERONO S.A., priority 2009, published 2012)
